# Data taken from patent US7691861B2, “Indolymaleimide derivatives” (Novartis AG, priority 2004, dated 2010).
# How the values were obtained:
# [1] = target: Human recombinant PKCθ (Homo sapiens, UniProt Q04759); assay: Protein Kinase Cθ Assay; assay type: biochemical; conditions: 10 μM 33P-ATP
# Experimental: (§1) The compounds of the invention are tested for their activity on different PKC isoforms according to the following method. Assay is performed in a white with clear bottom 384-well microtiterplate with non-binding surface. The reaction mixture (25 μl) contains 1.5 μM of a tridecapeptide acceptor substrate that mimics the pseudo substrate sequence of PKC α with the Ala→Ser replacement, 10 μM ^33P-ATP, 10 mM Mg(NO3)2, 0.2 mM CaCl2, […] at a protein concentration varying from 25 to 400 ng/ml (depending on the isotype used), lipid vesicles (containing 30 mol % phosphatidylserine, 5 mol % DAG and 65 mol % phosphatidylcholine) at a final lipid concentration of 0.5 mM, in 20 mM Tris-HCl buffer pH 7.4+0.1% BSA. Incubation is performed for 60 min at room temperature.
# Human recombinant PKCθ is used under the assay conditions as described above.
# [2] = target: T1, Human recombinant PKCε (Homo sapiens, UniProt Q02156); assay: Protein Kinase Cε Assay; assay type: biochemical; conditions: 10 μM 33P-ATP
# T1 construct: purchased Oxford Biomedical Research
# T1 sequence (Q02156 1-737): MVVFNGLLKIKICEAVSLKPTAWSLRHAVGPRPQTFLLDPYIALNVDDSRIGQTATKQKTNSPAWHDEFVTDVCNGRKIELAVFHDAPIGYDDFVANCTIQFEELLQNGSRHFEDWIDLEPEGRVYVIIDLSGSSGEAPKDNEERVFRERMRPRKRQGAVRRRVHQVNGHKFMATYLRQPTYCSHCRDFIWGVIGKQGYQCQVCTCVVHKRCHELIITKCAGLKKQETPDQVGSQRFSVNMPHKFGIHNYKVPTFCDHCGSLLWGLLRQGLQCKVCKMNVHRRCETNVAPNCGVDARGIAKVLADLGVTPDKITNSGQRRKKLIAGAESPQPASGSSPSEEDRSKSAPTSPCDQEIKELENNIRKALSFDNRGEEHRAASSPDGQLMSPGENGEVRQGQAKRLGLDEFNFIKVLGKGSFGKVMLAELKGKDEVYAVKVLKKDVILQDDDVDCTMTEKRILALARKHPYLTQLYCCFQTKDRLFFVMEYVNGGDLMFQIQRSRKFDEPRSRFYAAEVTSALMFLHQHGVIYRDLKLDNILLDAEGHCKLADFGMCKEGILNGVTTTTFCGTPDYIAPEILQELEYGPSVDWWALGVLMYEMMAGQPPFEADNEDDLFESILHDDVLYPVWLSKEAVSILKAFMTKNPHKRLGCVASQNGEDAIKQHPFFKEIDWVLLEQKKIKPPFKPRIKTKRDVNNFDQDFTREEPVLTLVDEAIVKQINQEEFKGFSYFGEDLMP
# Experimental: as §1
# Human recombinant PKCε is obtained from Oxford Biomedical Research and is used under the assay conditions as described under Section A.1 above.
# [3] = target: T2, Human recombinant PKCη (Homo sapiens, UniProt P24723); assay: Protein Kinase Cη Assay; assay type: biochemical; conditions: 10 μM 33P-ATP
# T2 construct: purchased PanVera
# Experimental: as §1
# Human recombinant PKCη is obtained from PanVera and is used under the assay conditions as described under Section A.1 above.
# [4] = target: T3, Human recombinant PKCδ (Homo sapiens, UniProt Q05655); assay: Protein Kinase Cδ Assay; assay type: biochemical; conditions: 10 μM 33P-ATP
# T3 construct: purchased Oxford Biomedical Research
# Experimental: as §1
# Human recombinant PKCδ is obtained from Oxford Biomedical Research and is used under the assay conditions as described under Section A.1 above.
# [5] = target: T4, Human recombinant PKCα (Homo sapiens, UniProt P17252); assay: Protein Kinase Cα Assay; assay type: biochemical; conditions: 10 μM 33P-ATP
# T4 construct: purchased Oxford Biomedical Research
# Experimental: as §1
# Human recombinant PKCα is obtained from Oxford Biomedical Research and is used under the assay conditions as described under Section A.1 above.
# [6] = test system: Jurkat cells transfected with a human interleukin-2 promoter/reporter gene construct; assay: CD28 Costimulation Assay; assay type: cell-based; conditions: IL-2 promoter luciferase reporter, 5.5 hours, read-out: IC50, inhibition of anti-T cell receptor/anti-CD28 and PMA/ionomycin stimulated Jurkat cells
# Experimental: The assay is performed with Jurkat cells transfected with a human interleukin-2 promoter/reporter gene construct as described by Baumann G et al. in Transplant. Proc. 1992; 24:43-8, the β-galactosidase reporter gene being replaced by the luciferase gene (de Wet J., et al., Mol. Cell. Biol. 1987, 7(2), 725-737). Cells are stimulated by solid phase-coupled antibodies or phorbol myristate acetate (PMA) and the Ca^++ ionophore ionomycin as follows. For antibody-mediated stimulation Microlite TM1 microtiter plates (Dynatech) are coated with 3 μg/ml goat anti-mouse IgG Fc antibodies (Jackson) in 55 μl phosphate-buffered saline (PBS) per well for three hours at RT. Plates are blocked after removing the antibodies by incubation with 2% bovine serum albumin (BSA) in PBS (300 μl per well) for 2 hours at RT. […] After incubation for 5.5 hours at 37° C. in 5% CO2, the level of luciferase is determined by bioluminescence measurement. […] Luciferase activity is assessed with a bioluminescence reader (Labsystem, Helsinki, Finland) after automatic addition of 50 μl per well luciferase reaction buffer containing 20 mM Tricine, 1.07 mM (MgCO3)4Mg(OH)2×5H2O, 2.67 mM MgSO4, 0.1 mM EDTA, 33.3 mM DTT, 270 μM coenzyme A, 470 μM luciferin (Chemie Brunschwig AG), 530 μM ATP, pH 7.8. […] The inhibition obtained in the presence of a test compound is calculated as percent inhibition of the high control.
# [7] = target: T5, Human recombinant PKCβ1 (Homo sapiens, UniProt P05771); assay: Protein Kinase Cβ1 Assay; assay type: biochemical; conditions: human recombinant PKCβ1, 10 μM 33P-ATP
# T5 construct: purchased Oxford Biomedical Research
# Experimental: as §1
# Human recombinant PKCβ1 is obtained from Oxford Biomedical Research and is used under the assay conditions as described under Section A.1 above.
# [8] = test system: spleen cells from CBA and BALB/c mice; assay: Allogeneic Mixed Lymphocyte Reaction (MLR); assay type: cell-based; conditions: CBA and BALB/c mouse spleen cells, 3H-thymidine incorporation after four days, read-out: IC50, inhibition of proliferation in two-way MLR
# Experimental: Briefly, spleen cells from CBA and BALB/c mice (1.6×10^5 cells from each strain per well in flat bottom tissue culture microtiter plates, 3.2×10^5 in total) are incubated in RPMI medium containing 10% FCS, 100 U/ml penicillin, 100 μg/ml streptomycin (Gibco BRL, Basel, Switzerland), 50 μM 2-mercaptoethanol (Fluka, Buchs, Switzerland) and serially diluted compounds. Seven three-fold dilution steps in duplicates per test compound are performed. After four days of incubation 1 μCi ^3H-thymidine is added. Cells are harvested after an additional five-hour incubation period, and incorporated ^3H-thymidine is determined according to standard procedures. Background values (low control) of the MLR are the proliferation of BALB/c cells alone. Low controls are subtracted from all values. High controls without any sample are taken as 100% proliferation.
# Sequence of Human recombinant PKCθ (Q04759 whole entry, canonical isoform): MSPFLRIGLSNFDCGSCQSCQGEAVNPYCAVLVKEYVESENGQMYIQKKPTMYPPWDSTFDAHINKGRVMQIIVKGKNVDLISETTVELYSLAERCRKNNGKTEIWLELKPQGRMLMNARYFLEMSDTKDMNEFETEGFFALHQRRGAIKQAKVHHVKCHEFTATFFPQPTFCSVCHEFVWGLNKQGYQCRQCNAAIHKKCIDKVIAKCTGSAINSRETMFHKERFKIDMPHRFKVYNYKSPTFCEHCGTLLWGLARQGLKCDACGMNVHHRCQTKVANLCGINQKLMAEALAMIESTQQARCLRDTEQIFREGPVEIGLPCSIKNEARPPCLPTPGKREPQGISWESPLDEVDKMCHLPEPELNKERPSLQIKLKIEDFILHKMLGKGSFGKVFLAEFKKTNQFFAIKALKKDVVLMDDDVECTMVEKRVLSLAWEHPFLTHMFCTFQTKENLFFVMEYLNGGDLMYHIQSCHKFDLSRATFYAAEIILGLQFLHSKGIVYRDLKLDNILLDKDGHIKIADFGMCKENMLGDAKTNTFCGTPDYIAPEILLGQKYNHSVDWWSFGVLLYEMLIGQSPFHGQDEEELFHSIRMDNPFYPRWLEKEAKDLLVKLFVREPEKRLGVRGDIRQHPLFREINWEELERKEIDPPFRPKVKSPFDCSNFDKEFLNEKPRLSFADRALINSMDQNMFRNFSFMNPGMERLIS
# T5 sequence (P05771 whole entry): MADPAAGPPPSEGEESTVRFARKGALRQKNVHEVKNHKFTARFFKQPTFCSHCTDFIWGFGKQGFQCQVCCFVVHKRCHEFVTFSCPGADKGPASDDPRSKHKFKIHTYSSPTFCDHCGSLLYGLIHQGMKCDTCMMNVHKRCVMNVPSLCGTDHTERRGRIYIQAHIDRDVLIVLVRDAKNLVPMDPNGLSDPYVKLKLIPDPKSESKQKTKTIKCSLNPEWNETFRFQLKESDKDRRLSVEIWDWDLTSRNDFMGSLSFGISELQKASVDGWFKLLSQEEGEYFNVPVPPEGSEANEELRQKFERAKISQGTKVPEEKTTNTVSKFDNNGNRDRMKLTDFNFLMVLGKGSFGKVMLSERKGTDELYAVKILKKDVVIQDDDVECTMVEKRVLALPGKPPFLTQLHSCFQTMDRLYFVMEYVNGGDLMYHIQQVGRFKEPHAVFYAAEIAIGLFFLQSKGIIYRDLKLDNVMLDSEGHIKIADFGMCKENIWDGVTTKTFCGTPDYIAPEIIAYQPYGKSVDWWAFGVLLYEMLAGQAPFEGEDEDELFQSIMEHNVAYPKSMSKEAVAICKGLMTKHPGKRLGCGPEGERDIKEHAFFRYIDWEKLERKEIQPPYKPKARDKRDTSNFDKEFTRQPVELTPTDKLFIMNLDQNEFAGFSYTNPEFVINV
# T2 sequence (P24723 whole entry): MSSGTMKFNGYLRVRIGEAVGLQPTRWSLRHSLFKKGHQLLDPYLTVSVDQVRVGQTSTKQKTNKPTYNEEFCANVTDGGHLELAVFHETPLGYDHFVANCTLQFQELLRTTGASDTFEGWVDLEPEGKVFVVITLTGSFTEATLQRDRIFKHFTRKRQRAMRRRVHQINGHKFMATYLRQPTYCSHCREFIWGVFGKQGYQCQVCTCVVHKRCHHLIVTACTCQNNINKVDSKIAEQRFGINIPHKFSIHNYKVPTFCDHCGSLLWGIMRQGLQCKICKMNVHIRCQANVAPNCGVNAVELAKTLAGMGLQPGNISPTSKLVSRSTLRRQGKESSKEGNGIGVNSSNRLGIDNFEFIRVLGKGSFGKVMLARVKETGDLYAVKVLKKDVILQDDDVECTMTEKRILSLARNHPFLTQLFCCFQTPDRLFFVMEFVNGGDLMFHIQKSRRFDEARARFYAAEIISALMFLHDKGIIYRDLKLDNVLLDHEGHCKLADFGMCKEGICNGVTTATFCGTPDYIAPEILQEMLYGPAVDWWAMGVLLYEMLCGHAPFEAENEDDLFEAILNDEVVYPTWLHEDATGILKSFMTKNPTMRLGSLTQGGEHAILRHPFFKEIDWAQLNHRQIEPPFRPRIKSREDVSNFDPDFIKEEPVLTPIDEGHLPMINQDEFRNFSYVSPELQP
# T3 sequence (Q05655 whole entry): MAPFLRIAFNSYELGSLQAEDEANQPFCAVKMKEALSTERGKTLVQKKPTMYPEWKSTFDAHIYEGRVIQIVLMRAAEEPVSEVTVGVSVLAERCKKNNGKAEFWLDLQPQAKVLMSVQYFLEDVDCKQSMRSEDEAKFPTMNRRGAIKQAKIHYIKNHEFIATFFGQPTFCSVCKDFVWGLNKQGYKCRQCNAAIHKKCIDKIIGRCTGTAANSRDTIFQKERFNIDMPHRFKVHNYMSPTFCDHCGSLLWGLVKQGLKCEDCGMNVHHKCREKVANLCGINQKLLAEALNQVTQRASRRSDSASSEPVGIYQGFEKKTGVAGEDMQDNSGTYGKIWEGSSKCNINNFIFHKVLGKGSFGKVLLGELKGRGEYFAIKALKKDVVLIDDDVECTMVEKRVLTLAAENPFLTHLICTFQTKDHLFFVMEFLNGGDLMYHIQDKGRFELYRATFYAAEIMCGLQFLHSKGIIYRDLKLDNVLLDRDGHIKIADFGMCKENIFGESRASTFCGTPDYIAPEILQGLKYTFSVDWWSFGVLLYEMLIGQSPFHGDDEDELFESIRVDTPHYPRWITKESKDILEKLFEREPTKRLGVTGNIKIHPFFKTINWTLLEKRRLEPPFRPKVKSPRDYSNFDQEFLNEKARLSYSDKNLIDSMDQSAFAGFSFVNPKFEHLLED
Compound,IC50 [1] [nM],IC50 [2] [nM],IC50 [3] [nM],IC50 [4] [nM],IC50 [5] [nM],IC50 [6] [nM],IC50 [7] [nM],IC50 [8] [nM]
"CN(C)Cc1ccc2c(C3=C(c4cn(C)c5ccccc45)C(=O)NC3=O)c(Cl)ccc2c1 [example 1, 3-(2-Chloro-6-dimethylaminomethyl-naphthalen-1-yl)-4-(1-methyl-1H-indol-3-yl)-pyrrole-2,5-dione]",19.2,17.6,–,–,–,–,–,–
Cc1cccc2c(C3=C(c4cccc5cc(CN)ccc45)C(=O)NC3=O)c[nH]c12 [example 3],–,–,53.9,–,–,–,–,–
CN(C)Cc1ccc2c(C3=C(c4c[nH]c5ccccc45)C(=O)NC3=O)c(Cl)ccc2c1 [example 4],–,–,7.2,9.4,–,–,–,–
Cc1cccc2c(C3=C(c4c(Cl)ccc5cc(CN(C)C)ccc45)C(=O)NC3=O)c[nH]c12 [example 5],–,–,–,4.5,0.9,11.5,2.3,183
CNCc1ccc2c(C3=C(c4c[nH]c5ccccc45)C(=O)NC3=O)c(Cl)ccc2c1 [example 6],–,2.3,–,–,1.1,–,–,–
CNCc1ccc2c(C3=C(c4c[nH]c5c(C)cccc45)C(=O)NC3=O)c(Cl)ccc2c1 [example 7],6.4,–,–,–,–,27.5,2.8,528
